Reference: ChEMBL document CHEMBL1136685, “Structure-activity relationship of cyclic peptide penta-c[Asp-His(6)-DPhe(7)-Arg(8)-Trp(9)-Lys]-NH(2) at the human melanocortin-1 and -4 receptors: His(6) substitution” (Bioorg Med Chem Lett, 2003)

Assays:
[1] = target: T1, Melanocyte-stimulating hormone receptor (Homo sapiens, UniProt Q01726); experiment: Agonist activity at human melanocortin receptor (hMC1R).; format: functional
Target sequence in this assay (Q01726 whole entry): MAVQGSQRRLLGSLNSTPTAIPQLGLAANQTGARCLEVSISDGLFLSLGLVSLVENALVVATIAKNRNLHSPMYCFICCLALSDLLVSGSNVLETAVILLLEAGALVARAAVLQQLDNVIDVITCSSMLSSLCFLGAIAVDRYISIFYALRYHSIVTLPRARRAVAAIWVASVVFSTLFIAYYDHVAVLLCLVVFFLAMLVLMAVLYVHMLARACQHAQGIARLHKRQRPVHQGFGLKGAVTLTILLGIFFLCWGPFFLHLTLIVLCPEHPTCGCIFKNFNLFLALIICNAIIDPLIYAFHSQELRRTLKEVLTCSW

Melanocortin receptor 3 [2] = target: T2, Melanocortin receptor 3 (Homo sapiens, UniProt P41968); experiment: Agonistic activity against human melanocortin receptor (hMC3R) for cAMP accumulation; format: functional
Melanocortin receptor 4 [3] = target: T3, Melanocortin receptor 4 (Homo sapiens, UniProt P32245); experiment: Agonist activity at human melanocortin receptor (hMC4R).; format: functional
Melanocortin receptor 5 [4] = target: T4, Melanocortin receptor 5 (Homo sapiens, UniProt P33032); experiment: Agonistic activity against human melanocortin receptor (hMC5R) for cAMP accumulation; format: functional
Melanocortin receptor 4 [5] = experiment: (§1) Agonistic activity against human melanocortin receptor (hMC1R) for cAMP accumulation; format: functional
[6] = target: T1, Melanocyte-stimulating hormone receptor; experiment: Agonistic activity against human melanocortin receptor (hMC1R) for cAMP accumulation at a concentration of 50 uM; format: functional
Target sequence in this assay (Q01726 whole entry, looked up): as the sequence (Q01726 whole entry) above

[7] = target: T1, Melanocyte-stimulating hormone receptor; experiment: as §1; format: functional
Target sequence in this assay (Q01726 whole entry, looked up): as the sequence (Q01726 whole entry) above

Melanocortin receptor 4 [8] = target: T3, Melanocortin receptor 4; experiment: Agonistic activity against human melanocortin receptor (hMC4R) for cAMP accumulation; format: functional
[9] = target: T1, Melanocyte-stimulating hormone receptor; experiment: Binding affinity towards human melanocortin receptor (hMC1R) using NDP-MSH as radioligand
Target sequence in this assay (Q01726 whole entry): as above

Melanocortin receptor 4 [10] = target: T3, Melanocortin receptor 4; experiment: Binding affinity towards human melanocortin receptor (hMC4R) using NDP-MSH as radioligand
Melanocortin receptor 3 [11] = target: T2, Melanocortin receptor 3; experiment: Agonistic activity against human melanocortin receptor (hMC3R) for cAMP accumulation at a concentration of 50 uM; format: functional
Melanocortin receptor 5 [12] = target: T4, Melanocortin receptor 5; experiment: Agonistic activity against human melanocortin receptor (hMC5R) for cAMP accumulation at a concentration of 50 uM; format: functional

T3 sequence (P32245 whole entry): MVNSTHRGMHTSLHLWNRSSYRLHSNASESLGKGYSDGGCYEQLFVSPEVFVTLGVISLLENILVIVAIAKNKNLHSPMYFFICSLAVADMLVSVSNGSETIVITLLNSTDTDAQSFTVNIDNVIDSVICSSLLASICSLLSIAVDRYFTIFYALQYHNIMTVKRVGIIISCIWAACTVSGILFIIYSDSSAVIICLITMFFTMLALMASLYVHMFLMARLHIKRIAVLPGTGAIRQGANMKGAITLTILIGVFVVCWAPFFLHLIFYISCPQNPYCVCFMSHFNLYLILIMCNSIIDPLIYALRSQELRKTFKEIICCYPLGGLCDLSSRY
T2 sequence (P41968 whole entry): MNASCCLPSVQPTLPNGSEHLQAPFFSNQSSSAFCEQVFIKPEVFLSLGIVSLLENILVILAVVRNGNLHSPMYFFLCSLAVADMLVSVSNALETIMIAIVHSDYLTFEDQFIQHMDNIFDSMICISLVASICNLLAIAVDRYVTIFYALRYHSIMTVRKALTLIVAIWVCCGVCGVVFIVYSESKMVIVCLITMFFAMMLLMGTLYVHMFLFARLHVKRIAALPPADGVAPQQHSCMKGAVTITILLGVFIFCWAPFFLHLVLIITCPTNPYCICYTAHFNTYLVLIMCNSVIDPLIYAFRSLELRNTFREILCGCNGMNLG
T4 sequence (P33032 whole entry): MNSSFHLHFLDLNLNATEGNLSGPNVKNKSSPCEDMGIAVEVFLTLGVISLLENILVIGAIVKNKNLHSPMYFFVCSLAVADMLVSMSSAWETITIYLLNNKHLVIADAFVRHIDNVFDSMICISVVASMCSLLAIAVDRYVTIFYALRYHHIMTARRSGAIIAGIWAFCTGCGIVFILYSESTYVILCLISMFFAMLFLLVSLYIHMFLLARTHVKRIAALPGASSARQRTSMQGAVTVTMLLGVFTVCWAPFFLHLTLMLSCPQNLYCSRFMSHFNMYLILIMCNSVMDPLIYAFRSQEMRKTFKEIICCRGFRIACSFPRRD

Structure (SMILES)	EC50 (Melanocortin receptor 4 [3]) [nM]	cAMP accumulation [6] [%]	EC50 (Melanocortin receptor 4 [8]) [nM]	cAMP accumulation (Melanocortin receptor 3 [11]) [%]	cAMP accumulation (Melanocortin receptor 5 [12]) [%]	other results
CCCCC(=O)N[C@H]1CC(=O)NCCCC[C@@H](C(N)=O)NC(=O)[C@H](Cc2c[nH]c3ccccc23)NC(=O)[C@H](CCCNC(=N)N)NC(=O)[C@@H](Cc2ccccc2)NC(=O)[C@H](Cc2cnc[nH]2)NC1=O	0.9					EC50 [1]: 0.4 nM; EC50 (Melanocortin receptor 3 [2]): 6 nM; EC50 (Melanocortin receptor 5 [4]): 33 nM
CCCCC(=O)N[C@H]1CC(=O)NCCCC[C@@H](C(N)=O)NC(=O)[C@H](Cc2c[nH]c3ccccc23)NC(=O)[C@H](CCCNC(=N)N)NC(=O)[C@@H](Cc2ccccc2)NC(=O)[C@H](Cc2ccc(-c3ccccc3)cc2)NC1=O	6					EC50 (Melanocortin receptor 4 [5]): 53 nM
CCCCC(=O)N[C@H]1CC(=O)NCCCC[C@@H](C(N)=O)NC(=O)[C@H](Cc2c[nH]c3ccccc23)NC(=O)[C@H](CCCN=C(N)N)NC(=O)[C@@H](Cc2ccccc2)NC(=O)[C@@]2(CCc3c(C)cccc3C2)NC1=O (mixture of isomers)	25	80				
CCCCC(=O)N[C@H]1CC(=O)NCCCC[C@@H](C(N)=O)NC(=O)[C@H](Cc2c[nH]c3ccccc23)NC(=O)[C@H](CCCN=C(N)N)NC(=O)[C@@H](Cc2ccccc2)NC(=O)[C@@H]2c3ccccc3CN2C1=O (single isomer, unassigned; form 1)	118					EC50 [7]: 56 nM
CCCCC(=O)N[C@H]1CC(=O)NCCCC[C@@H](C(N)=O)NC(=O)[C@H](Cc2c[nH]c3ccccc23)NC(=O)[C@H](CCCNC(N)=O)NC(=O)[C@@H](Cc2ccccc2)NC(=O)C2(CCc3c(Cl)cccc3C2)NC1=O (single isomer, unassigned; form 1)			48			IC50 [9]: 13100 nM; IC50 (Melanocortin receptor 4 [10]): 410 nM
CCCCC(=O)N[C@H]1CC(=O)NCCCC[C@@H](C(N)=O)NC(=O)[C@H](Cc2c[nH]c3ccccc23)NC(=O)[C@H](CCCN=C(N)N)NC(=O)[C@@H](Cc2ccccc2)NC(=O)C2(CCc3c(Cl)cccc3C2)NC1=O (single isomer, unassigned; form 1)			4			IC50 [9]: 5820 nM; IC50 (Melanocortin receptor 4 [10]): 15 nM
CCCCC(=O)N[C@@H]1CC(=O)NCCCC[C@@H](C(N)=O)NC(=O)[C@H](Cc2c[nH]c3ccccc23)NC(=O)[C@@H](CCCN=C(N)N)NC(=O)[C@H](Cc2ccccc2)NC(=O)C2(CCc3c(Cl)cccc3C2)NC1=O (single isomer, unassigned; form 1)		20		25	75	
CCCCC(=O)N[C@@H]1CC(=O)NCCCC[C@@H](C(N)=O)NC(=O)[C@H](Cc2c[nH]c3ccccc23)NC(=O)[C@@H](CCCNC(N)=O)NC(=O)[C@H](Cc2ccccc2)NC(=O)C2(CCc3c(Cl)cccc3C2)NC1=O (single isomer, unassigned; form 1)		0		0	0	
CCCCC(=O)N[C@H]1CC(=O)NCCCC[C@@H](C(N)=O)NC(=O)[C@H](Cc2c[nH]c3ccccc23)NC(=O)[C@H](CCCNC(N)=O)NC(=O)[C@@H](Cc2ccccc2)NC(=O)C2(CCc3c(Cl)cccc3C2)NC1=O (single isomer, unassigned; form 2)			105			IC50 [9]: 14800 nM; IC50 (Melanocortin receptor 4 [10]): 675 nM
CCCCC(=O)N[C@H]1CC(=O)NCCCC[C@@H](C(N)=O)NC(=O)[C@H](Cc2c[nH]c3ccccc23)NC(=O)[C@H](CCCN=C(N)N)NC(=O)[C@@H](Cc2ccccc2)NC(=O)C2(CCc3c(Cl)cccc3C2)NC1=O (single isomer, unassigned; form 2)			40			
CCCCC(=O)N[C@@H]1CC(=O)NCCCC[C@@H](C(N)=O)NC(=O)[C@H](Cc2c[nH]c3ccccc23)NC(=O)[C@@H](CCCN=C(N)N)NC(=O)[C@H](Cc2ccccc2)NC(=O)C2(CCc3c(Cl)cccc3C2)NC1=O (single isomer, unassigned; form 2)		60		0	38	
CCCCC(=O)N[C@@H]1CC(=O)NCCCC[C@@H](C(N)=O)NC(=O)[C@H](Cc2c[nH]c3ccccc23)NC(=O)[C@@H](CCCNC(N)=O)NC(=O)[C@H](Cc2ccccc2)NC(=O)C2(CCc3c(Cl)cccc3C2)NC1=O (single isomer, unassigned; form 2)		0		0	0	
